Here are results for 10 compounds from patent publication US6900033B2, “Methods and compositions for modulating ACE-2 activity” (Human Genome Sciences, Inc., priority 2001, dated 2005).

Assay [1] deals with T1, ACE-2 (Homo sapiens, UniProt Q9BYF1).
T1 construct: nucleotides corresponding to the extracellular domain (M1-S740); FLAG; made in house; host or cells: Sf9 insect cells (recombinant baculovirus, transfer vector pA2); purified from conditioned media
Conditions: literature (Donoghue 2000; Tipnis 2000); cited from earlier work.

The target of assay [2] is T1, ACE-2. Kind of assay: Fluorometric ACE-2 inhibition assay with peptide M-2195 as substrate. The conditions noted are these: ACE-2 activity, M-2195 substrate, enzyme pre-incubated 30 minutes with inhibitor, 100 mM TRIS pH 7.4. Format: biochemical. The procedure: Assay mixture was prepared first by pre-incubating (30 minutes, room temperature) the enzyme with the inhibitor (0.45 μg ([…]) ACE-2, 0-0.5 μM inhibitor rage, up to 90 […] volume with 100 mM TRIS pH 7.4, 0.1% Tween-20, 0.4% DMSO) in each well, in triplicate, by dispensing volumes using a repeat pipetter (Rainin) into a 96-well clear-bottom back plate (Costar, 07-200-590). […] Substrate stock (10 μL of 10× concentration) was added to each well to be tested in blocks of three vertically down the plate. The reaction was monitored on a Spectrafluor Plus (Tecan) at an excitation wavelength of 340 nm and an emission wavelength of 400 nm (+/−35 nm) every 30 seconds for a time period of 10 minutes.
ACE-2 cleaves off the C-terminal lysine from the peptide with a concomitant increase in fluorescence signal.
The assays were performed in 96-well clear-bottom black plates (Costar, 07-200-590). In each well, 0.45 μg (5 pmoles) of ACE-2 is added to 90 μL of an assay solution containing 100 mM TRIS at pH 7.4, 0.1% Tween, and 0.4% DMSO. Substrate stock at 10 μL of 10× concentration is added to each well (for example, 10 μL of 1 mM stock for a final 100 μM concentration). The reaction was monitored on a Spectrafluor Plus (Tecan) at an excitation wavelength of 340 nm and an emission wavelength of 400 nm (+/−35 nm) every 30 seconds up to 10 minutes. All samples were measured in triplicate.

Assay [3] has as its system isolated aortic vascular rings. The experiment in a line: Developed isometric tension of isolated rat aortic vascular rings. Conditions: for potentiation of angiotensin II-mediated vasoconstriction: peptide combined with angiotensin II. An excerpt: The effects of graded doses of A1-9 (Fields et al., Peptide Research 4: 95-101 (1991)) or A1-10 (substrate control) alone or in combination (Tallarida, Drug Synergism and Dose-Effect Data Analysis, Chapman and Hall/CRC, New York (2000), Tallarida et al., Life Science 61: PL417-425 (1997)) with angiotensin II were examined on isolated aortic vascular rings developed tension in response to vasoactive substances. Aortas were removed from mature male Sprague-Dawley rats, cleared of connective tissue, and cut into 1 mm rings. Rings were mounted to an isometric force transducer and placed in Krebs-Henseleit solution bubbled with 95% 02/5% C02 at 37° C. Rings were exposed to a 2 g preload, relaxed and then exposed to various concentrations of angiotensin peptides alone or in combination. Following angiotensin peptide dosing, rings were fully constricted with KCl to determine the maximum degree of vasoconstriction.
The maximum tension developed by A1-9 was minimal and always less than that of angiotensin II.

Assay [4] deals with isolated rat aorta. Conditions: literature (Oparil 1971); cited from earlier work.
Assay [5] deals with awake, free-ranging Sprague-Dawley rats. Kind of assay: Arterial pressure in awake, free-ranging Sprague-Dawley rats, intravenous infusion. In kind it is in vivo, rat. The procedure: To investigate the effects of A1-9 on arterial pressure, A1-9 was administered to awake, free-ranging Sprague-Dawley rats via indwelling intravenous and arterial catheters. Intravenous infusion of A1-9 (1-3 μg/kg/min) in the awake rat produced a dose-dependent tonic increase in mean arterial pressure to a maximum of approximately 30 mmHg (FIG. 2). […] These responses seen with A1-9 were similar in magnitude to those induced by angiotensin II.
To examine any interactions induced by coadministration of A1-9 and angiotensin II, arterial pressure was monitored in the awake rat after they received either A1-9 (1 μg/kg/min) or saline coinfused with angiotensin 11 (1-100 ng/kg/min).

Assay [6] concerns anesthetized dogs. Conditions: literature (Oparil 1971); cited from earlier work.
In assay [7] the test system is anesthetized rats. The conditions noted are these: literature (Oparil 1971); cited from earlier work.
Setting [8] is: intravenous infusion 1-3 μg/kg/min, awake rat.

Where “and” joins values, the source holds several entries; their conditions need not be identical. Equal values may be shown once. Entries after “also recorded” stand apart in the source; their conditions may differ. Positions of bridges follow the written chain, without caps; N, C: chain ends.

T1 sequence (Q9BYF1 18-740): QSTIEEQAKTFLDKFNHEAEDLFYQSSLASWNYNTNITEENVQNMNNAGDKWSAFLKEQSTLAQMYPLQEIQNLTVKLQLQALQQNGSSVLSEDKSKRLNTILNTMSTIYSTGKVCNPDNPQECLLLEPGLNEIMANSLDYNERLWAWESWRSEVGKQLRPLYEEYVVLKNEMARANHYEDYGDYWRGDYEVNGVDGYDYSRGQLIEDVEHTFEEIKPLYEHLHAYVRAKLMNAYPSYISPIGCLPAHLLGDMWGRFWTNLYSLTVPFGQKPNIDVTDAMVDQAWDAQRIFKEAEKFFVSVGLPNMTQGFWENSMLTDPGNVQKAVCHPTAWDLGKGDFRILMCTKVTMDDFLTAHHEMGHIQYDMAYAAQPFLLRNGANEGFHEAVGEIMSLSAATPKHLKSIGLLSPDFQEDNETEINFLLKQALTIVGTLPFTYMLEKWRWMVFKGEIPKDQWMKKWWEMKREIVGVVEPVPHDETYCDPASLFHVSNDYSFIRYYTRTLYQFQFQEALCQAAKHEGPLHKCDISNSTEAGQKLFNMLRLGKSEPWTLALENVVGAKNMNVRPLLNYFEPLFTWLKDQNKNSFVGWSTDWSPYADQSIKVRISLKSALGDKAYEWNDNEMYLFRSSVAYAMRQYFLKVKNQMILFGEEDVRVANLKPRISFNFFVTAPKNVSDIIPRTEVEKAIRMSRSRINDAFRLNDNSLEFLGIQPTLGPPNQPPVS

Take `C[C@H](CS)C(=O)N1CCC[C@H]1C(=O)O` [captopril]: in assay [1], the “block of ACE-2 conversion of angiotensin I to angiotensin 1-9” value was “not blocked”.

On to “Ac-AGEGNCFLIGPWCFEFGTEGGG-NH2 (disulfide 6-13 (inferred)) [DX-504]”, for which the Inhibition entry in assay [2] is recorded as “−”.

As to “Ac-AGVYFCFDWEQDCDEMGTEGGG-NH2 (disulfide 6-13 (inferred)) [DX-528]”, in assay [2], the Inhibition entry is on record as “−”.

On to “Ac-AGWVLCFEWEDCDEKGTEGGG-NH2 (disulfide 6-12 (inferred)) [DX-527]”, for which the Inhibition entry in assay [2] is “−”.

With “Ac-GDDDDCGWIGFANFHLCLHGDPEGGG-NH2 (disulfide 6-17 (inferred)) [DX-510]”, the Inhibition entry in assay [2] is given as “−”.

With “Ac-GSDQNCFAMYCFEFAPGEGGG-NH2 (disulfide 6-11 (inferred)) [DX-503]”, the Inhibition entry in assay [2] was “−”.

Regarding “Ac-GSLEMCEALFCVEFAPGEGGG-NH2 (disulfide 6-11 (inferred)) [DX-502]”, in assay [2], the Inhibition result was “−”.

With “Ac-GSNDYCTVFTGALFCLDFAPEGGG-NH2 (disulfide 6-15 (inferred)) [DX-507]”, in assay [2], the Inhibition entry is on record as “−”.

On to “angiotensin I (DRVYIHPFHL; Angiotensin-1; UniProt P01019 25-34, looked up) [substrate control; the ACE and ACE-2 substrate]”, for which the “potentiation of angiotensin II-mediated vasoconstriction” value in assay [3] is on record as “failed to potentiate”.

With “des-Leu^10-angiotensin I (DRVYIHPFH; Angiotensin 1-9; UniProt P01019 25-33, looked up) [A1-9, nonapeptide formed by removal of the C-terminal leucine from angiotensin I]”, the vasoconstrictor activity result in assay [4] was “weak vasoconstrictor”. The “effect on the pressor response to angiotensin II” value in assay [5] (coinfused with angiotensin II 1-100 ng/kg/min, A1-9 at 1 μg/kg/min) was “potentiated the pressor response elicted by angiotensin II in an additive fashion”. For the same compound, in assay [5] (setting [8]), the heart rate result is listed as “decreased in a dose-dependent manner”, the “maximum increase in mean arterial pressure” value was “approximately 30 mmHg” and the “pulse pressure (systolic - diastolic)” value was “elevated”. The pressor activity entry in assay [6] is “weak pressor activity”. Besides, the “Al-9 % Max. Developed Force” value in assay [3] (Emax, A1-9 alone, 1-30 nM, mature rat aortic rings, % of KCl maximum, one value per experiment 1-5, listed as Al-9) was 3.5% and 0% and 7.5% and 6.4% and 3.2%. The “potentiation of angiotensin II-mediated vasoconstriction” value in assay [3] is “synergistic or supraadditive potentiation”. The “vasoconstrictor activity of the peptide alone” value in assay [3] (rat aortic rings) was “no effect on vascular tone; also recorded: virtually devoid of activity”. Also, the “factor of increase of the relative potency of angiotensin II beyond simple additive potentiation” value in assay [3] (shift of angiotensin II dose-effect curve by A1-9, FIG. 1) is on record as 11.6 (95% confidence limits of 3.02-44.7). Also, in assay [7], the pressor activity entry is given as “weak pressor activity”.
